Data: patent publication US6335339B1, “Triazine antiviral compounds” (Scriptgen Pharmaceuticals, Inc., priority 1998, dated 2002)

Experiment: neutral red dye uptake cytotoxicity
Type: cell-based
Settings: human, 2.2.15 cells (confluent cultures), 9 days treatment, read-out: 50% Cell Death CC50
Experimental: Further, the antiviral effect of any compound must be measured against its toxicity. Cytotoxicity is measured by the neutral red uptake method using the same cells used for antiviral activity.
2b. Compounds were prepared for toxicity treatment as follows: For each compound, a total of 4 concentrations were examined. This required 9 sets of 4 sterile, 1.1 ml minitubes (36 tubes per compound). Into the first tube of each set, sufficient compound was aliquoted to make up 465 μl of the highest test concentration. The other tubes were left empty. The tubes were covered with the rack lids, and stored at −20° C. or at an appropriate temperature. Tubes for the last day of treatment for toxicity testing contain the same amount of compound as used the previous days (not 3xas for the antiviral assays).
3b. The cytotoxicity of test compounds was analyzed in a 3.3-fold dilution series as follows. […] (155 μl×3) of RP2 were added to the first tube (containing the aliquot of compound) and 310 μL (155 μl×2) RP2 to each of the 3 remaining tubes. 150 μl of test compound-containing medium were serially transferred from the first tube to the other 3 tubes.
5. A single plate was used for the toxicity treatments for each test compound (up to 7 compounds per plates since the top row were reserved for untreated cells on every toxicity plate). To initiate the treatments, the culture medium was removed, and 100 μl of each dilution of every compound were added to each of 3 wells using a configuration similar to that shown above for the antiviral treatments. The untreated cells received 100 μl RP2 per well. Treatment was repeated daily for 9 days.
The antiviral effect of any compound was evaluated relative to its toxicity. Cells were seeded and treated following the guidelines above, after which a neutral red dye uptake assay was performed to assess toxicity as described below. Other assays of cytotoxicity (e.g., MTT) can be substituted for the procedure described below. Note that this procedure assesses toxicity under culture and treatment conditions which are identical to those used for the antiviral analyses, thereby permitting a determination as to whether the reduction in virus production due to a specific antiviral effect or due to a cytotoxic effect on the host cell. Since the cultures, by necessity, are at confluence, the cytotoxic effects of the test compounds will probably be reduced relative to the cytotoxic effects that would be expected for actively dividing cells.
1. Cultures were treated with test compounds on the designated toxicity plates as described above.
2. The culture medium was carefully removed 24 hours following the 9th day of treatment. The monolayer was fully removed in the top left three wells (row A, col. 1-3). These wells were used as “blanks” for the plate reader.
3. 100 μl DPBS (containing 0.01% neutral red dye) were added to each well, including the empty wells, and Incubated in the tissue culture incubator for 30 minutes.
4. The dye was removed carefully and gently, using a multichannel pipetman since the monolayers can become fragile after incubation with neutral red dye. 200 μl DPBS were added to all the wells taking care not to displace the monolayers. The DPBS was removed and 100 μl 50% EtOH/1% glacial acetic acid (in H2O) were added to each well. The plates were mixed for 15 minutes on an orbital platform shaker (120-150 RPM) to allow for full extraction of the dye from the cells.
5. Optical absorbance at 510 nm was read in an ELISA type plate reader, using the 3 empty wells to set the background. An average absorbance value was calculated for the 9 untreated cultures on a plate, and the absorbance of dye for the treated cultures on the same plate was expressed as a percentage of that value. This procedure was repeated for each individual plate. […]

For `CCN(CC)c1nc(NCc2ccccc2)nc(N/N=C/c2ccccc2O)n1` [Compound 155, 2-hydroxybenzaldehyde N-[4-(benzylamino)-6-(diethylamino)-1,3,5-triazin-2-yl]hydrazone], the CC50 at 9 days was 59 µM.
